Where two headings read alike, the source gives them in different places.
Key:
[1] = test system: CF airway epithelial cell cultures; experiment: SCN− efflux in CF airway epithelial air-liquid interface cultures; format: cell-based, human; settings: for effect on SCN^− efflux: CF cells
Method: (§1) J. Respir. […] Experiments comparing non-CF and CF cells were performed with cultures grown simultaneously and matched in passage number, the number of cells plated, and days in culture. […] To initiate experiments, apical surfaces of the cultures were rapidly washed three times with Dulbecco's PBS (50 μl for 6.5 mm filters or 500 μl for 24 mm filters) containing 100 μM amiloride. Following a third wash, additional aliquots were placed on the apical surface for sequential 2 min incubations at 37° C. in humidified 5% CO2.
(§2) Bronchial epithelial cells were obtained from either CF or non-CF lungs at the time of transplant or organ donation. Cells were passaged twice (thereby de-differentiated) and then cultured at an air-liquid interface for re-differentiation. […] J. Respir. […] Following three rapid PBS washes of the apical surface, additional PBS aliquots were placed on the apical surface for sequential 2 min incubations. […] Airway epithelial cell cultures from three separate CF patients were compared to three non-CF control cultures.

human airway epithelia = experiment: Apical H2O2 production by airway epithelial ALI cultures (fluorometric horseradish peroxidase micro-assay); format: cell-based
Method: Reverse transcription-polymerase chain reaction (RT-PCR) was performed with primers designed to detect any mammalian NADPH oxidase capable of producing H2O2 through superoxide intermediate.
Since the predicted molecular structure of Duox1 and 2 identified an intracellular loop containing 2 EF-hand calcium-binding motifs, the Ca^2+ stimulated H2O2 production was assessed. ALI cultures were stimulated for one hour with Thapsigargin (1 μM), an inhibitor of the endoplasmic reticulum calcium ATPase pump that increases intracellular Ca^2+. […] In this assay, the cells were incubated for one hour with either DPI alone or in combination with thapsigargin (1 μM).

[2] = test system: Pseudomonas aeruginosa (ATCC 27853); experiment: Antibacterial assay of LPO system components in PBS pH 5.7 (control experiments); format: cell-based; settings: 1.125 μg/ml LPO, 10^−5 M H2O2 or 5×10^−4 M SCN− added singly or in pairs
Method: (§3) Bacteria were collected in the stationary phase of growth and further diluted in LB broth to 5-6×10^4/ml. After adding glycerol to 15%, aliquots of bacteria were stored at −80° C.
(§4) Cultures of non-CF and CF airway epithelial cells were matched with regard to passage number, days in culture, and days at the air liquid interface. At least 24 h prior to the experiments, basolateral media of some cultures were supplemented with 100 μM KSCN. The apical surfaces of the cultures were washed with 0.25 ml PBS and the washes were pooled and stored at −20° C. […] Control experiments were performed using only PBS adjusted to pH 5.7. […] Mixtures were sampled immediately and 4 h after incubation at room temperature and CFU were determined by plating on LB Agar. Antibacterial activity was expressed as a ratio of CFU after 4 h to the starting CFU in the sample to control for slight differences in the starting number of bacteria.

[3] = test system: Pseudomonas aeruginosa (ATCC 27853); experiment: LPO-dependent antibacterial activity of human airway secretions; format: cell-based
Method: Human airway secretions were obtained from intubated patients undergoing ambulatory outpatient elective surgery according to IRB approved protocols. Patients were selected for not having respiratory disease. Saline (3 ml) was injected into the tracheal tube and immediately suctioned into a trap. Recovered secretions were spun at 16,000 rpm for 20 min. at 4° C. The supernatant was aliquoted and stored at −80° C. for later analysis. Undiluted secretions were obtained from acutely (<24 h) intubated patients in the medical ICU who were intubated for reasons other than respiratory disease. Selected patients had no clinical signs of respiratory infection. Secretions were cleared by centrifugation (100,000×g, 30 min), aliquoted, and stored at −80° C.
as §3, §4
It is unlikely that H2O2 would continue to be produced in secretions after collection since its source is thought to be cellular in origin. For this reason, secretions were supplemented with 10^−5 M H2O2.

P. aeruginosa [4] = test system: P. aeruginosa
Method: as §3, §4

Burkholderia cepacia = experiment: LPO dependent killing with bovine milk LPO at pH 5.7, 6.2 and 6.8; format: cell-based; settings: dapsone 10^−3 M; salicyl hydroxamic acid 10^−4 M
Source text: (§5) Concentrations of the LPO system components were selected to be within the measured ranges in human airways.

P. aeruginosa [5] = experiment: as above; format: cell-based, Pseudomonas aeruginosa; settings: dapsone 10^−3 M; salicyl hydroxamic acid 10^−4 M
Source text: as §5

[6] = test system: non-CF airway epithelial cell cultures; experiment: SCN− efflux / apical accumulation in non-CF airway epithelial air-liquid interface cultures; format: cell-based, human
Method: as §1, §2

[7] = cited from earlier work
[8] = PBS pH 5.7, 4 h room temperature, H2O2 10^−5 M or dapsone 10^−3 M, mean±SE, n=6
[9] = long-term daily aerosol administration

O=S(=O)(O)c1cc(N=C=S)ccc1C=Cc1ccc(N=C=S)cc1S(=O)(=O)O [DIDS, 4,4′-diisothiocyanostilbene-2,2′disulphonic acid]
effect on SCN^− efflux [1]: neither glibenclamide nor DIDS had any effect

c1ccc2c(c1)[I+]c1ccccc1-2 [DPI, Diphenyleneiodonium]
apical H2O2 production (human airway epithelia; 1 μM DPI in combination with thapsigargin (1 μM), one hour): 45±19 H2O2 pmoles/hr

OO [H2O2, hydrogen peroxide]
growth of bacteria [2]: not affected
cell growth (ratio of CFU after 4 h to starting CFU) [3, 8]: 1.9±0.3
cell growth (ratio of CFU after 4 h to starting CFU) ([3]; bacteria in airway secretions of six patients in presence of 10^−5 M H2O2, n=6): 0.98±0.16
antibacterial activity in culture washes (P. aeruginosa [4]; H2O2 10^−5 M alone or with LPO, washes from cells cultured without basolateral SCN−): did not alone or with LPO, give rise to any antibacterial activity

N#CS [SCN^−, thiocyanate]
growth of bacteria [2]: not affected
antibacterial activity in culture washes (P. aeruginosa [4]; LPO/H2O2 supplemented washes from CF cultures grown with basolateral SCN− (100 μM)): no detectable LPO-dependent effect
antibacterial activity in culture washes (P. aeruginosa [4]; LPO/H2O2 supplemented washes from non-CF cultures grown with basolateral SCN− (100 μM)): LPO-dependent killing of bacteria
antibacterial activity in culture washes (P. aeruginosa [4]; exogenous SCN− (0.5 mM) added to CF culture washes): generated antibacterial activity
antibacterial activity in culture washes (P. aeruginosa [4]; exogenous SCN− (0.5 mM) added to non-CF culture washes): increased the LPO dependent activity

Nc1ccc(S(=O)(=O)c2ccc(N)cc2)cc1 [dapsone]
effect of peroxidase inhibitor on LPO system antibacterial activity (Burkholderia cepacia): inhibited
cell growth (ratio of CFU after 4 h to starting CFU) [3, 8]: 1.9±0.3
cell growth (ratio of CFU after 4 h to starting CFU) ([3]; airway secretions with 10^−5 M H2O2 plus dapsone, n=6, p<0.05 vs no dapsone): 1.68±0.31
effect of peroxidase inhibitor on LPO system antibacterial activity (P. aeruginosa [5]): inhibited

CCCC(=O)Nc1ncnc2c1ncn2[C@@H]1O[C@@H]2COP(=O)(O)O[C@H]2[C@H]1OC(=O)CCC [dibutryl cAMP]
SCN^− efflux after stimulation of PKA ([6]; non-CF cultures, dibutryl cAMP (0.5 mM) and forskolin (10 μM) together): increase in efflux
SCN^− efflux after stimulation of PKA ([1]; CF cultures, dibutryl cAMP (0.5 mM) and forskolin (10 μM) together): did not

COc1ccc(Cl)cc1C(=O)NCCc1ccc(S(=O)(=O)NC(=O)NC2CCCCC2)cc1 [glibenclamide]
reversibility of inhibition of SCN^− efflux ([6]; non-CF cells): reversible
block of PKA-stimulated and baseline SCN^− efflux ([6]; non-CF cells, glibenclamide 500 μM): blocked
effect on SCN^− efflux [1]: neither glibenclamide nor DIDS had any effect

CC(C)Cc1ccc(C(C)C(=O)O)cc1 (stereo not drawn) [ibuprofen]
rate of lung inflammation ([7]; children with CF, four-year study, high doses): reduced the rate of lung inflammation

C/C=C(/C)C(=O)O[C@H]1C(C)=C2[C@H]([C@@H]1OC(=O)CCCCCCC)[C@@](C)(OC(C)=O)C[C@H](OC(=O)CCC)[C@@]1(O)[C@H]2OC(=O)[C@@]1(C)O [thapsigargin, Thapsigargin]
apical H2O2 produced (human airway epithelia; ALI cultures stimulated one hour with thapsigargin 1 μM (baseline 59±16)): 128±17 H2O2 pmoles/hr

lactoperoxidase [LPO]
growth of bacteria [2]: not affected

B1: Pulmozyme®: mucus-thinning drug, a DNAse (recombinant human deoxyribonuclease) (protein, UniProt P24855 23-282, looked up)
Deoxyribonuclease-1: LKIAAFNIQTFGETKMSNATLVSYIVQILSRYDIALVQEVRDSHLTAVGKLLDNLNQDAPDTYHYVVSEPLGRNSYKERYLFVYRPDQVSAVDSYYYDDGCEPCGNDTFNREPAIVRFFSRFTEVREFAIVPLHAAPGDAVAEIDALYDVYLDVQEKWGLEDVMLMGDFNAGCSYVRPSQWSSIRLWTSPTFQWLIPDSADTTATPTHCAYDRIVVAGMLLRGAVVPDSALPFNFQAAYGLSDQLAQAISDHYPVEVMLK
lung function ([7]; clinical trials, people with CF): improved lung function
number of respiratory infections ([7]; clinical trials): reduced the number of respiratory infections
frequency of severe respiratory tract exacerbations [7, 9]: decrease the frequency of severe respiratory tract exacerbations
rate of decline in pulmonary function [7, 9]: slow the rate of decline in pulmonary function

From patent publication US7770577B2, “Methods and devices for treating lung dysfunction” (priority 2001, dated 2010)
